According to patent US10604523B2, “1-aryl-4-methyl-[1,2,4]triazolo[4,3-a]quinoxaline derivatives” (Janssen Pharmaceutica NV, priority 2011, dated 2020):
Like-named read-outs stand apart in the source and are kept apart here.

Key:
[1] = target: T1, Rat recombinant PDE10A (rPDE10A2) (Rattus norvegicus, UniProt Q9QYJ6); experiment: In vitro assay PDE10A (SPA, 3H-cAMP); format: biochemical; conditions: for IC50: read-out: PIC50 PDE10 (converted)
T1 construct: made in house; host or cells: Sf9 insect cells (baculovirus)
T1 sequence (Q9QYJ6 1-794): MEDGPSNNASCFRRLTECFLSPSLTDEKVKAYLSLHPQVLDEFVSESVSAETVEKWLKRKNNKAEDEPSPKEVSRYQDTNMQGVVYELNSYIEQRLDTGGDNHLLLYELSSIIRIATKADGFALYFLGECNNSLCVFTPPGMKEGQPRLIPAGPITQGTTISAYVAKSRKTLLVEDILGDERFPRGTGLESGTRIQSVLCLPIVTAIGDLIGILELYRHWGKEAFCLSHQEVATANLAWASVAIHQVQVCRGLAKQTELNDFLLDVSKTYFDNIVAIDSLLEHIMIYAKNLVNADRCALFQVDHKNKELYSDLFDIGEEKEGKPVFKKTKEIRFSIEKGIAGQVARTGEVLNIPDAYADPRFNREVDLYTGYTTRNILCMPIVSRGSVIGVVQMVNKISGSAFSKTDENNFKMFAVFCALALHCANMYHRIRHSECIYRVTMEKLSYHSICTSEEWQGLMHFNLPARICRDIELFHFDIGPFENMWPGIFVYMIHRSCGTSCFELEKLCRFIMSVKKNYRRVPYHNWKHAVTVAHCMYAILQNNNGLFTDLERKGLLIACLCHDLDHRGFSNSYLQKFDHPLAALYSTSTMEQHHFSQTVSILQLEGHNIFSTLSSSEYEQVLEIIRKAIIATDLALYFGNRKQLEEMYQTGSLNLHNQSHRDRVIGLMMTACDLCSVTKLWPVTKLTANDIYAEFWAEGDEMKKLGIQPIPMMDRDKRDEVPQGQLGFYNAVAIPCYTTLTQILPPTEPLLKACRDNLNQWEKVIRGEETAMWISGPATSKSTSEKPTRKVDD

[2] = system: Apomorphine-induced agitation; experiment: Reversal of Apomorphine-induced Agitation in Rats (APO); format: in vivo, rat; conditions: for SC Dose at max effect / SC Max effect (cumulative agitation score over 60 min) / SC LAD (lowest active dose): subcutaneous route; for SC Max effect (cumulative agitation score over 60 min) / PO Max effect (cumulative agitation score over 60 min): apomorphine 1.0 mg/kg i.v.; for SC LAD (lowest active dose) / PO LAD (lowest active dose): lowest dose at which ≥67% tested animals respond
Protocol: Apomorphine (1.0 mg/kg, i.v.)-induced agitation was scored every 5 min over the first hour after injection of apomorphine. The score system was: (3) pronounced, (2) moderate, (1) slight, and (0) absent. […] For the present purpose, the cumulative agitation score over the whole 60-min observation period was used as a measure to describe the maximum effect (Max effect).

[3] = -log IC50 expressed in mol/L, rPDE10A2, 60 nM cAMP

With `CCOC(=O)c1ccc2nc(C)c3nnc(-c4ccccc4)n3c2c1` [Compound B-2a, Ethyl 4-methyl-1-phenyl[1,2,4]triazolo[4,3-a]quinoxaline-8-carboxylate] the IC50 [1, 3] was 295 nM.
`Cc1nc2ccc(CNC(C)C)cc2n2c(-c3cncc(OCC4CC4)c3)nnc12` [Compound B-210] was tested, and the IC50 [1] was 1450 nM.
`CCCOc1ccc(Cl)c(-c2nnc3c(C)nc4ccc(Br)cc4n23)c1` [Compound B-92] gave an IC50 [1] of 468 nM.
For `CCOC(=O)c1ccc2c(c1)nc(C)c1nnc(-c3ccccc3)n12` [Compound B-2b, Ethyl 4-methyl-1-phenyl[1,2,4]triazolo[4,3-a]quinoxaline-7-carboxylate], the “PIC50 PDE10” value [1, 3] was 5.57.
`Cc1nc2ccc(CN3CCC(O)C3)cc2n2c(-c3ccccc3Cl)nnc12` (centres unmarked) [Compound B-57] was tested, and the SC Dose at max effect [2] was 10 mg/kg, the “SC Max effect (cumulative agitation score over 60 min)” value [2] was 22 and the SC LAD (lowest active dose) [2] was over 10 mg/kg. It also gave an IC50 [1] of 18.2 nM.
For `Cc1nc2ccc(C(=O)NCc3ccccc3)cc2n2c(-c3ccccc3)nnc12` [Compound B-9, N-Benzyl-4-methyl-1-phenyl[1,2,4]triazolo[4,3-a]quinoxaline-8-carboxamide], the PO Dose at Max Effect [2] was 2.5 mg/kg, the “PO Max effect (cumulative agitation score over 60 min)” value [2] was 22 and the PO LAD (lowest active dose) [2] was over 2.5 mg/kg. It also gave an IC50 [1] of 41.7 nM.
In the case of `CCCOc1ccc(Cl)c(-c2nnc3c(C)nc4ccc(CNCC)cc4n23)c1` [Compound B-111], the IC50 [1] is reported as 1780 nM.
With `CCCCOc1cncc(-c2nnc3c(C)nc4ccc(CN5CCOCC5)cc4n23)c1.Cl` [Compound B-17a, 1-(5-Butoxypyridin-3-yl)-4-methyl-8-(morpholin-4-ylmethyl) [1,2,4]triazolo[4,3-a]quinoxaline hydrochloride] the SC Dose at max effect [2] was 40 mg/kg, the “SC Max effect (cumulative agitation score over 60 min)” value [2] was 23 and the SC LAD (lowest active dose) [2] was over 40 mg/kg.
`CCNC(=O)c1ccc2nc(C)c3nnc(-c4cncc(OC)c4)n3c2c1` [Compound B-80] showed an IC50 [1] of 741 nM.
In the case of `CCCCOc1cncc(-c2nnc3c(C)nc4ccc(CNC)cc4n23)c1` [Compound B-200], the IC50 [1] is reported as over 10000 nM.
For `COC1CCN(Cc2ccc3nc(C)c4nnc(-c5ccccc5Cl)n4c3c2)CC1` [Compound B-93], the SC Dose at max effect [2] was 10 mg/kg, the “SC Max effect (cumulative agitation score over 60 min)” value [2] was 7 and the SC LAD (lowest active dose) [2] was 10 mg/kg. The “PIC50 PDE10” value [1, 3] was 7.41.
`CCCCOc1ccc(Cl)c(-c2nnc3c(C)nc4ccc(CNCC)cc4n23)c1` [Compound B-101] showed an IC50 [1] of 5500 nM.
For `Cc1nc2ccc(Br)cc2n2c(-c3ccccc3Cl)nnc12` [Compound B-3a, 8-Bromo-1-(2-chlorophenyl)-4-methyl[1,2,4]triazolo[4,3-a]quinoxaline], the PO Dose at Max Effect [2] was 10 mg/kg, the “PO Max effect (cumulative agitation score over 60 min)” value [2] was 22 and the PO LAD (lowest active dose) [2] was over 10 mg/kg. The IC50 [1, 3] was 43.7 nM.
Compound `CCNC(=O)c1ccc2nc(C)c3nnc(-c4cccnc4)n3c2c1` [Compound B-143] has an IC50 [1, 3] of 1350 nM.
With `CCCOc1ccc(Cl)c(-c2nnc3c(C)nc4ccc(CN5CCOCC5)cc4n23)c1` [Compound B-72] the SC Dose at max effect [2] was 10 mg/kg, the “SC Max effect (cumulative agitation score over 60 min)” value [2] was 23 and the SC LAD (lowest active dose) [2] was over 10 mg/kg. For the same compound, the “PIC50 PDE10” value [1, 3] was 6.49.
With `CCCOc1cncc(-c2nnc3c(C)nc4ccc(CNCC)cc4n23)c1` [Compound B-178] the IC50 [1] was over 10000 nM.
For `CCCOc1cncc(-c2nnc3c(C)nc4ccc(CN5CCOCC5)cc4n23)c1` [Compound B-119], the “PIC50 PDE10” value [1, 3] was 5.21.
With `CCNCc1ccc2nc(C)c3nnc(-c4cc(OCC)ccc4Cl)n3c2c1` [Compound B-151a] the “PIC50 PDE10” value [1, 3] was 6.04.
In the case of `CCCCOc1ccc(F)c(-c2nnc3c(C)nc4ccc(Br)cc4n23)c1` [Compound B-95], the IC50 [1] is reported as 1740 nM.
With `Cc1nc2ccc(C(=O)NCCN3CCOCC3)cc2n2c(-c3ccccc3Cl)nnc12` [Compound B-36] the SC Dose at max effect [2] was 10 mg/kg, the “SC Max effect (cumulative agitation score over 60 min)” value [2] was 21 and the SC LAD (lowest active dose) [2] was over 10 mg/kg. The IC50 [1] was 11.2 nM.
`COCCOc1cncc(-c2nnc3c(C)nc4ccc(CN5CCOCC5)cc4n23)c1` [Compound B-203] was tested, and the “PIC50 PDE10” value [1, 3] was 5.11.
For `CCNC(=O)c1ccc2nc(C)c3nnc(-c4ccccc4Cl)n3c2c1` [Compound B-10, 1-(2-Chlorophenyl)-N-ethyl-4-methyl[1,2,4]triazolo[4,3-a]quinoxaline-8-carboxamide], the PO Dose at Max Effect [2] was 2.5 mg/kg, the “PO Max effect (cumulative agitation score over 60 min)” value [2] was 21 and the PO LAD (lowest active dose) [2] was over 2.5 mg/kg. For the same compound, the IC50 [1, 3] was 21.4 nM.
`CCN(CC)CCNC(=O)c1ccc2nc(C)c3nnc(-c4ccccc4Cl)n3c2c1` [Compound B-41] was tested, and the SC Dose at max effect [2] was 10 mg/kg, the “SC Max effect (cumulative agitation score over 60 min)” value [2] was 22 and the SC LAD (lowest active dose) [2] was over 10 mg/kg. For the same compound, the IC50 [1] was 44.7 nM.
With `CCCCOc1cncc(-c2nnc3c(C)nc4ccc(CNCC)cc4n23)c1` [Compound B-150] the IC50 [1] was over 10000 nM.
Compound `CCCCOc1cc(-c2nnc3c(C)nc4ccc(CN5CCOCC5)cc4n23)cnc1Cl` [Compound B-202] has an IC50 [1, 3] of over 10000 nM.
For `Cc1nc2ccc(CN3CCCC(O)C3)cc2n2c(-c3ccccc3Cl)nnc12` (centres unmarked) [Compound B-62], the SC Dose at max effect [2] was 10 mg/kg, the “SC Max effect (cumulative agitation score over 60 min)” value [2] was 21 and the SC LAD (lowest active dose) [2] was over 10 mg/kg. It also gave an IC50 [1] of 19.5 nM.
`Cc1nc2ccc(CN3CCOCC3)cc2n2c(-c3ccccc3Cl)nnc12` [Compound B-19, 1-(2-Chlorophenyl)-4-methyl-8-(morpholin-4-ylmethyl)[1,2,4]triazolo[4,3-a]-quinoxaline] was tested, and the SC Dose at max effect [2] was 5 mg/kg, the “SC Max effect (cumulative agitation score over 60 min)” value [2] was 14 and the SC LAD (lowest active dose) [2] was 5 mg/kg.
`CCNC(=O)c1ccc2nc(C)c3nnc(-c4ccccc4)n3c2c1` [Compound B-65] was tested, and the PO Dose at Max Effect [2] was 10 mg/kg, the “PO Max effect (cumulative agitation score over 60 min)” value [2] was 21 and the PO LAD (lowest active dose) [2] was over 10 mg/kg. For the same compound, the IC50 [1] was 251 nM.
In the case of `Cc1nc2ccc(CN3CCOCC3)cc2n2c(-c3ccc(F)cc3Cl)nnc12` [Compound B-82], the SC Dose at max effect [2] is reported as 10 mg/kg, the “SC Max effect (cumulative agitation score over 60 min)” value [2] is reported as 9 and the SC LAD (lowest active dose) [2] is reported as 2.5 mg/kg. The IC50 [1] was 85.1 nM.
With `Cc1nc2ccc(CN3CCOCC3)cc2n2c(-c3cc(OC(C)C)ccc3Cl)nnc12` [Compound B-58] the “PIC50 PDE10” value [1, 3] was 5.73.
For `Cc1nc2ccc(CN3CCOCC3)cc2n2c(-c3c(F)cccc3Cl)nnc12` [Compound B-23, 1-(2-Chloro-6-fluorophenyl)-4-methyl-8-(morpholin-4-ylmethyl)[1,2,4]triazolo[4,3-a]quinoxaline], the SC Dose at max effect [2] was 40 mg/kg, the “SC Max effect (cumulative agitation score over 60 min)” value [2] was 1 and the SC LAD (lowest active dose) [2] was 0.63 mg/kg.
With `CCNC(=O)c1ccc2nc(C)c3nnc(-c4cccnc4)n3c2c1` [Compound B-127] the IC50 [1, 3] was 1820 nM.
Compound `CCCCOc1cncc(-c2nnc3c(C)nc4ccc(CNC(C)C)cc4n23)c1` [Compound B-153] has an IC50 [1, 3] of over 10000 nM.
For `Cc1nc2ccc(CN3CCOCC3)cc2n2c(-c3cncc(OCC4CC4)c3)nnc12` [Compound B-193], the “PIC50 PDE10” value [1, 3] was 5.44.
Compound `CCNC(=O)c1ccc2nc(C)c3nnc(-c4cnccc4C)n3c2c1` [Compound B-109] has an IC50 [1] of 851 nM.
With `CCCCOc1ccc(Cl)c(-c2nnc3c(C)nc4ccc(CNC)cc4n23)c1` [Compound B-192] the “PIC50 PDE10” value [1, 3] was 5.04.
With `CCCCOc1ccc(Cl)c(-c2nnc3c(C)nc4ccc(CNC(C)C)cc4n23)c1` [Compound B-149] the “PIC50 PDE10” value [1, 3] was 5.38.
`CCCCOc1ccc(F)c(-c2nnc3c(C)nc4cc(C#N)ccc4n23)c1` [Compound B-176] showed an IC50 [1] of over 10000 nM.
`CCCCOc1ccc(F)c(-c2nnc3c(C)nc4ccc(C#N)cc4n23)c1` [Compound B-120] gave an IC50 [1] of 3550 nM.
With `CCCCOc1ccc(F)c(-c2nnc3c(C)nc4cc(Br)ccc4n23)c1` [Compound B-175] the IC50 [1] was over 10000 nM.
`Cc1nc2ccc(CN(C)C)cc2n2c(-c3cc(OC(C)C)ccc3Cl)nnc12` [Compound B-141] was tested, and the “PIC50 PDE10” value [1, 3] was 5.8.
`CCCOc1ccc(Cl)c(-c2nnc3c(C)nc4ccc(CN(C)C)cc4n23)c1` [Compound B-112] was tested, and the IC50 [1] was 1480 nM.
For `CCNCc1ccc2nc(C)c3nnc(-c4ccccc4Cl)n3c2c1` [Compound B-20, N-{[1-(2-Chlorophenyl)-4-methyl[1,2,4]triazolo[4,3-a]quinoxalin-8-yl]methyl}-ethanamine], the SC Dose at max effect [2] was 10 mg/kg, the “SC Max effect (cumulative agitation score over 60 min)” value [2] was 21 and the SC LAD (lowest active dose) [2] was over 10 mg/kg.
With `Cc1nc2ccc(CNCc3ccccc3)cc2n2c(-c3ccccc3Cl)nnc12` [Compound B-99] the “PIC50 PDE10” value [1, 3] was 7.3.
`Cc1nc2ccc(CN(C)C)cc2n2c(-c3cncc(OCC4CC4)c3)nnc12` [Compound B-205] gave an IC50 [1] of over 10000 nM.
`CCNC(=O)c1ccc2nc(C)c3nnc(-c4c(Cl)cccc4Cl)n3c2c1` [Compound B-33] showed an IC50 [1, 3] of 12.3 nM.
`CCNCc1ccc2nc(C)c3nnc(-c4cncc(OCC5CC5)c4)n3c2c1` [Compound B-211] was tested, and the IC50 [1, 3] was over 10000 nM.
With `CCNCc1ccc2nc(C)c3nnc(-c4cc(OC(C)C)ccc4Cl)n3c2c1` [Compound B-148] the “PIC50 PDE10” value [1, 3] was 5.07.
